Results taken from ChEMBL document CHEMBL4732257, “The optimization and characterization of functionalized sulfonamides derived from sulfaphenazole against Mycobacterium tuberculosis with reduced CYP 2C9 inhibition” (Bioorg Med Chem Lett, 2021).
≈ marks a conversion by molar mass, not a printed value.

Tested on: Mycobacterium tuberculosis
Assay: Antitubercular activity against isoniazid,streptomycin,rifampicin,ethambutol,para-aminosalicylate,prothionamide,capreomycin-resistant Mycobacterium tuberculosis 14862 assessed as bacterial growth inhibition
Assay type: functional

SMILES	MIC
NNC(=O)c1ccncc1 [ISONIAZID]	> 10 µg/mL
Cc1ccc(-n2nccc2NS(=O)(=O)c2ccc(N)cc2)cc1	11.9 µg/mL (≈ 36.3 µM)
Nc1ccc(S(=O)(=O)Nc2ccnn2-c2ccccc2)cc1 [SULFAPHENAZOLE]	12.6 µg/mL (≈ 40 µM)
COc1ccc(-n2nccc2NS(=O)(=O)c2ccc(N)cc2)cc1	10.6 µg/mL (≈ 30.8 µM)
Nc1ccc(S(=O)(=O)Nc2ccnn2-c2ccc(F)cc2)cc1	10.9 µg/mL (≈ 32.7 µM)
